Source: US10993923B2, “Method for ameliorating fibrosis using 1-[4-chloro-3-(trifluoromethyl)phenyl]-3-[3-(4-cyanophenoxy)phenyl]urea” (priority 2016, dated 2021)

Tests used:
primary mouse HSCs = assay: Cell viability (MTS), primary mouse HSCs; format: cell-based; details: 24 or 48 hours; FIG. 14A
Experimental: (§1) Rat immortal hepatic stellate cell line HSC-T6 and LX2 human hepatic stellate cell line were provided by Professor Scott Friedman of Mount Sinai Hospital in New York, USA. The primary mouse HSCs were obtained via the way: after intubating the hepatic portal vein of the mouse, the cells were perfused with Leffert's and ethylene glycol bis-aminoethyl ether tetraacetic acid (EGTA) buffer in situ, and then collagenase was injected to digest the liver tissue, and then the primary mouse HSCs were isolated by Histodnz gradient. […]
(§2) HSC-T6 cells, LX2 cells or primary mouse HSCs cells were seeded in 96-well plates (5,000 cells/well) for 24 hours, and the cells were treated with various concentrations of 1-[4-chloro-3-(trifluoromethyl)phenyl]-3-[3-(4-cyanophenoxy)phenyl]urea or Sorafenib for 24 or 48 hours. The effect of each reagent on the cell viability and the cell were evaluated by CellTiter 96 AQueous one solution of 3-(4,5-dimethylthiazol-2-yl)-5-(3-carboxymethoxyphenyl)-2-(4-sulfophenyl)-2H-tetra zolium, an inner, MTS (Promega, USA). […] The proportion of apoptotic cells was mixed the early (Annexin V+/PI−) and the late (Annexin V+/PI+) apoptotic cells measured by BD FACS Verse flow cytometry (BD, USA).

HSC-T6 cells [1] = assay: Apoptosis (Annexin V / propidium iodide flow cytometry), HSC-T6 cells; format: cell-based, rat
Experimental: as §1
as §2, with “(BD, USA). […]” for “(BD, USA).”

[2] = test system: CCl4-induced hepatic fibrosis in mice; assay: CCl4-induced hepatic fibrosis mice treatment model; format: in vivo, male C57BL/6J mice
Source text: In male C57BL/6J mice, liver fibrosis was induced by carbon tetrachloride (CCl4). The mice were given peritoneal injection of carbon tetrachloride for 4 or 8 weeks every two weeks.
The mice liver samples were stored in 10% formaldehyde, dehydrated with gradient alcohol, embedded in paraffin blocks, sectioned to a thickness of 3 μm, placed on glass slides, and stained with Picrosirius Red Stain kit (ScyTek, USA), following the manufacturer's instructions. The severity of liver fibrosis was graded according to the Ishak fibrosis score. Quantitative collagen-positive area (qCPA) was determined by densitometry via ImageJ software. Hepatic hydroxyproline concentrations were measured by the hydroxyproline assay kit (Biovision, USA), following the manufacturer's instructions Immunohistochemistry was performed by the Leica BOND-MAX automatic chromatograph (Leica Biosystems, Germany), following the manufacturer's instructions.
Continuous variables are presented as mean (standard error), and categorical data are presented as number (percentage), as appropriate. Differences between subgroups were evaluated using the Student t test. Spearman's correlation was used for the association between SHP-1 and serum alanine aminotransferase (ALT). The mouse survival rate was estimated using the Kaplan-Meier method. The log-rank test was used to determine the statistical differences in survival of the different experimental groups. Statistical analysis was performed using STATA (version 13, Stata Corp, College Station, Tex., USA). All tests were two-sided, and P<0.05 was considered significant.

HSC-T6 cells [3] = assay: Cell viability (MTS), HSC-T6 cells; format: cell-based, rat; details: 24 hours; effect more significant than sorafenib; FIG. 14A
Experimental: as §1, §2

SHP-1 = biological target: T1, SHP-1 (Rattus norvegicus, UniProt P81718); assay: SHP-1 phosphatase activity, HSC-T6 cells; format: cell-based; details: sorafenib 5 μM, compound 2.5 or 5 μM, FIG. 16C
T1 construct: endogenous in cells; host or cells: HSC-T6 cells
T1 sequence (P81718 whole entry): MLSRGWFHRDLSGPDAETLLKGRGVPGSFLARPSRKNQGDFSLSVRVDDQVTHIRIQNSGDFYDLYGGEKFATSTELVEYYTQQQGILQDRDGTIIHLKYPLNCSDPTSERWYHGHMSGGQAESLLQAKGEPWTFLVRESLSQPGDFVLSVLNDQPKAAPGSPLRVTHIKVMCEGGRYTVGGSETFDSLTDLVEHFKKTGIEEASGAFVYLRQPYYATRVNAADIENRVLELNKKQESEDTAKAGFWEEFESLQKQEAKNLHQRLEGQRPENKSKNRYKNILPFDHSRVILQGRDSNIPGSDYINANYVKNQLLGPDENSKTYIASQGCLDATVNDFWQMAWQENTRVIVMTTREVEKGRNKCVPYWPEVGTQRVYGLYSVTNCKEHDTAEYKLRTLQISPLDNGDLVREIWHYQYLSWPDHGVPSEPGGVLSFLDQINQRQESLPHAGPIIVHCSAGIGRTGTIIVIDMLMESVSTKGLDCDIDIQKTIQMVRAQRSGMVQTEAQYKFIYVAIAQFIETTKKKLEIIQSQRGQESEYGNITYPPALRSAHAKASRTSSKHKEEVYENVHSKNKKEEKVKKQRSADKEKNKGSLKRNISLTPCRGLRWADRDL

For `N#Cc1ccc(Oc2cccc(NC(=O)Nc3ccc(Cl)c(C(F)(F)F)c3)c2)cc1` [1-[4-chloro-3-(trifluoromethyl)phenyl]-3-[3-(4-cyanophenoxy)phenyl]urea], the “viability of primary mouse HSCs” value (primary mouse HSCs) was “dose- and time-dependent effects to reduce the viability”, the HSC apoptosis (HSC-T6 cells [1]; HSC-T6, 24 hours, compared with sorafenib, FIG. 14B) was “significantly increased HSC apoptosis in a dose-dependent manner” and the “compound-induced apoptosis in STAT3-overexpressing HSCs” value (HSC-T6 cells [1]; rat STAT3 stable overexpression clone, FIG. 15C) was “significantly abolished”. For the same molecule, the “survival compared with the sorafenib treatment” value ([2]; 10 mg/kg, log rank P=0.0671, FIG. 12E) was “tendency to yield higher survival”, the “survival rate compared with the control group” value ([2]; 10 mg/kg, log-rank P=0.0291, FIG. 12E) was “significantly improved the survival rate” and the “anti-fibrotic activity in qCPA, Ishak fibrosis score and hydroxyproline concentration” value ([2]; 5, 10, or 20 mg/kg, FIG. 12B-12D) was “increasing anti-fibrotic activity”. For the same molecule, the “hepatic fibrosis (picrosirius red staining)” value ([2]; compound 5, 10, or 20 mg/kg or sorafenib 10 mg/kg, with CCl4 for 6 weeks after 2 weeks CCl4 induction, FIG. 12A) was “significantly improved hepatic fibrosis”, the “viability of HSC-T6 cells” value (HSC-T6 cells [3]) was “dose-dependent effects to reduce the viability” and the SHP-1 activity (SHP-1) was “significantly increased the SHP-1 activity at a lower concentration”.
